{"source": "patent US20240110200A1", "about": "“Recombinant AAV Vectors and Gene Therapies for Treating Brain Diseases” (City University of Hong Kong, priority 2022, published 2024)", "key": {"[1]": {"system": "KA-induced chronic epileptic mice", "test": "Intrahippocampal kainic acid injection-induced chronic epilepsy (TLE) model, seizure monitoring by MMRS", "assay_type": "in vivo, C57BL/6J male mice", "details": "650 nL KA (0.3 mg/mL) intrahippocampal, no intervention", "description": "C57BL/6J male mice (6˜7 weeks old) are anaesthetized with pentobarbital (100 mg/kg), a craniotomy is performed perpendicularly to the […] of the hippocampus (−2.06 mm posterior to the bregma, −1.80 mm to the midline, and −1.60 mm to the dura), and 650 nL KA (0.3 mg/mL) is injected at a speed of 30 nL/min.\nUpon recovering from the anesthesia, the mice are monitored for at least an hour for any signs of acute epileptic seizures before being placed back into their cages for routine monitoring. For the mice only injected with KA (FIG. S16), they are monitored for 16 weeks after the KA injection.\nThe mice are housed separately under a standard 12-h light/dark cycle and stable temperature (23-25° C.) with free access to food and water. Each KA-injected mouse is monitored and recorded 24 h per day using a 360-smart camera for a minimum of three weeks after surgery. […]\nThe seizures of the mice are evaluated in a blinded manner; the examiners of the video are blind to the history of the mice. […]\nAfter the C57bL/6J male mice (9-10 weeks old) show a stable occurrence of spontaneous recurrent seizures, epileptic mice are randomly divided into two groups (experimental and control). The daily seizure occurrence is recorded for 2 weeks as the pre-treatment baseline for each mouse (FIG. 6). […]"}, "[2]": {"system": "GFAP+ cells / Camkll+ cells in cortex and hippocampus", "test": "GFAP and Camkll immunostaining of TLE mouse brain", "assay_type": "in vivo, C57BL/6J male mice", "details": "right intrahippocampal KA-injection; n=10 sections from N=4 mice", "description": "For immunohistochemistry, mice are deeply anaesthetized by an overdose of pentobarbital sodium. Mice are transcardially perfused with 30 mL cold phosphate-buffered saline (PBS) and 30 mL 4% (w/v) paraformaldehyde (4% PFA). Brain tissue is removed, post-fixed with 4% PFA, and treated with 30% (w/v) sucrose in 4% PFA at 4° C. for 2˜3 days. Brain tissue is sectioned on a cryostat (30 μm for standard staining and 10 μm for Super-Resolution imaging) (Leica CM3500, Germany) and preserved with antifreeze buffer (20% (v/v) glycerine and 30% (v/v) ethylene glycol diluted in PBS) at −20° C. For immunostaining and statistics of co-labelled neurons and axonal synapses in the AC, serial sections containing the AC are selected for analysis. […]\nImages are took at 20× magnification and montaged together with the same laser settings between the parallel studies. […] For quantification of co-localization, neurons expressing the indicated reporter are counted using only the corresponding color channel. Then, among these cells, the number of neurons co-expressing the marker of interest is counted by the Nikon imaging analysis software (NIS-Elements Viewer 5.21). […] A neuron is positive for a given marker if the corresponding signal is above background fluorescence. The ratio of neurons co-expressing both markers over the total number of cells expressing only the reporter is then calculated. […]"}}}
{"smiles": "C=C(C)[C@H]1CN[C@H](C(=O)O)[C@H]1CC(=O)O", "note": "[KA, Kainic Acid]", "values": [{"measurement": "recurrent convulsive seizures of stages 3 to 5 at week 4", "setting": "[1]", "value": "5.2±1.52", "unit": "seizures per day"}, {"measurement": "GFAP+ cells in the right hippocampus after 16 weeks", "setting": "[2]", "value": "748.56±74.88", "unit": "per mm^2"}]}
